Reference: patent US8697747B2, “Enhancing coagulation or reducing fibrinolysis” (THe UAB Research Foundation, priority 2009, dated 2014)

Tests used:
pooled normal plasma [1] = experiment: Thrombelastography/CLSM in pooled normal plasma (INR 1.0) with or without tPA; assay type: biochemical, human
Procedure: Pooled normal plasma (George King Bio-Medical, Overland Park, Kans.) anticoagulated with sodium citrate was utilized for experimentation. […] Plasma anticoagulated with sodium citrate procured from anonymous donors treated with warfarin was also obtained from the same vendor.
Plasma sample composition of experiments without tPA addition. The final volume for all subsequently described plasma sample mixtures was 359.6 μL. Sample composition consisted of 326 μL of plasma, 10 μL of tissue factor reagent (0.1% final concentration in dH2O; Instrumentation Laboratory, Lexington, Mass.), 3.6 μL of dimethyl sulfoxide (DMSO) or DMSO with CORM-2 (100 μM final concentration; Sigma-Aldrich, St. Louis, Mo.), and 20 μL of 200 mM CaCl2. Tissue factor stock was kept on ice prior to use and was remade every two hours. […] DMSO was added to dry CORM-2 just prior to placement into the plasma mixture. Six replicate experiments were performed with pooled normal plasma with or without CORM-2 added, whereas plasma obtained from subjects treated with warfarin underwent singlicate experiments with or without CORM-2 exposure.
Plasma sample composition of experiments with tPA addition. As in the series of experiments without tPA addition, the final volume of plasma sample mixtures was 359.6 μL. Sample composition consisted of 316 μL of plasma; 10 μL of tissue factor reagent (0.1% final concentration); 3.6 μL of DMSO without or with CORM-2 (100 μM final concentration); 10 μL of tPA diluted with 10 mM potassium phosphate buffer (pH 7.4) for a final activity of 100 IU/mL; and 20 μL of 200 mM CaCl2. As with tissue factor reagent, tPA stock was kept on ice prior to use and was remade every two hours. Six replicate experiments were performed with pooled normal plasma with or without CORM-2 added, whereas plasma obtained from subjects treated with warfarin underwent singlicate experiments with or without CORM-2 exposure.
Clot Lifespan Model Analyses. Plasma sample mixtures were placed in a disposable cup in a computer-controlled THROMBELASTOGRAPH® hemostasis system (Model 5000, Haemoscope Corp., Niles, Ill.), with addition of CaCl2 as the last step to initiate clotting. In the first series of experiments, no tPA was added and data were collected until clot strength (maximum amplitude) was stable. In the second series of experiments in which tPA was added, data were collected until clot lysis time occurred. […] The nomenclature used to describe these phenomena is as follows: Time to maximum rate of thrombus generation (TMRTG): This is the time interval (sec) observed prior to maximum speed of clot growth. Maximum rate of thrombus generation (MRTG): This is the maximum velocity of clot growth observed (dynes/cm^2/sec). Total Thrombus Generation (TTG): This is the total area under the velocity curve during clot growth (dynes/cm^2), representing the amount of clot strength generated during clot growth. Time to maximum rate of lysis (TMRL): This is the time interval (sec) measured from the time of maximum strength to the time when the velocity of clot disintegration is maximal. Maximum Rate of Lysis (MRL): This is the maximum velocity of clot disintegration observed (—dynes/cm^2/sec). Area of Clot Lysis (ACL): This is the total area under the velocity curve during clot disintegration (−dynes/cm^2), representing the amount of clot strength lost during clot disintegration.

[2] = pure (43.5 mg/mL) or up to three-fold diluted fibrinogen solution
From the text: Exposure of purified fibrinogen to CORM-2. Experiments with purified fibrinogen pre-exposure to CORM-2 were to be performed in a similar fashion as that described with prothrombin. […] Therefore, a concentration-response relationship between various fibrinogen concentrations with or without the addition of CORM-2 was generated as outlined subsequently.

pooled normal plasma [3] = experiment: Thrombelastographic coagulation kinetics, Celite-activated normal plasma; assay type: biochemical, human; settings: 100 μM, mean ± SD, n=8
Procedure: Pooled normal plasma (George King Bio-Medical, Overland Park, Kans.) anticoagulated with sodium citrate was utilized for experimentation. […] Factor XIII (FXIII) deficient plasma anticoagulated with sodium citrate was also obtained from George King Bio-Medical (Overland Park, Kans.).
Plasma Sample Composition. The final volume for all subsequently described plasma sample mixtures was 359.4 μL. […] (Motterlini et al., Expert Opin Investig Drugs, 14:1305-1318 (2005), which is incorporated by reference herein in its entirety).
Clot Lifespan Model Analyses. Plasma sample mixtures were placed in a disposable cup in a computer-controlled THROMBELASTOGRAPH® hemostasis system (Model 5000, Haemoscope Corp., Niles, Ill.), with addition of CaCl2 as the last step to initiate clotting. Data were collected for 15 minutes, as normal plasma completes thrombus formation within this interval in this system (Dong et al., Eur J Pharmacol 590:99-104 (2008)).
Statistical Analyses. Data are presented as mean±SD. All conditions described were represented with n=8 experiments, as n=6-8 typically provides statistical power>0.8 in similar analyses (Nielsen et al., Acta Anaesthesiol Scand 49:222-231 (2005) and Nielsen et al., Blood Coagul Fibrinolysis 17:75-81 (2006)). Analyses of the effects of CORM-2 and iCORM-2 on thrombelastographic variables were conducted using one way analysis of variance with the Holm-Sidak test used for post hoc comparisons. Graphical representation of the data was generated with commercially available software (Origin 7.5, OriginLab Corp., Northampton, Mass.). A P value of ≦0.05 was considered significant.

[4] = no tPA, 100 μM CORM-2, mean ± SD, n=6
[5] = tPA 100 U/ml, 100 μM CORM-2, mean ± SD, n=6
[6] = tPA 100 U/ml, 100 μM vs 0 μM CORM-2

For `[C-]#[O+].[C-]#[O+].[C-]#[O+].[C-]#[O+].[C-]#[O+].[C-]#[O+].[Cl][Ru][Cl].[Cl][Ru][Cl]` [CORM-2, tricarbonyldichlororuthenium (II) dimer], the “MRTG (maximum rate of thrombus generation)” value (pooled normal plasma [1]; [4]) was 15.0 ± 2.4 dynes/cm^2/sec, the “TMRTG (time to maximum rate of thrombus generation)” value (pooled normal plasma [1]; [4]) was 2.26 ± 0.03 min and the “TTG (total thrombus generation)” value (pooled normal plasma [1]; [4]) was 285 ± 38 dynes/cm^2. For the same compound, the “Percent Change of MRTG” value (pooled normal plasma [1]; no tPA, 100 μM vs 0 μM CORM-2) was 102%, the “Percent Change of TMRTG” value (pooled normal plasma [1]; no tPA, 100 μM vs 0 μM CORM-2) was −5% and the “Percent Change of TTG” value (pooled normal plasma [1]; no tPA, 100 μM vs 0 μM CORM-2) was 70%. The “CGT (clot growth time)” value (pooled normal plasma [1]; [5]) was 7.00 ± 0.94 min, the “CLS (clot lifespan)” value (pooled normal plasma [1]; [5]) was 39.07 ± 2.82 min and the “CLT (clot lysis time)” value (pooled normal plasma [1]; [5]) was 32.07 ± 3.15 min. For the same compound, the “MRL (maximum rate of lysis)” value (pooled normal plasma [1]; [5]) was −2.4 ± 0.5 −dynes/cm^2/sec, the “MRTG (maximum rate of thrombus generation)” value (pooled normal plasma [1]; [5]) was 15.2 ± 1.3 dynes/cm^2/sec and the “TMRL (time to maximum rate of lysis)” value (pooled normal plasma [1]; [5]) was 22.92 ± 1.93 min. For the same compound, the “TMRTG (time to maximum rate of thrombus generation)” value (pooled normal plasma [1]; [5]) was 2.14 ± 0.05 min, the “TTG (total thrombus generation)” value (pooled normal plasma [1]; [5]) was 284 ± 27 dynes/cm^2 and the “Percent Change of CGT” value (pooled normal plasma [1]; [6]) was 58%. For the same compound, the “Percent Change of CLS” value (pooled normal plasma [1]; [6]) was 91%, the “Percent Change of CLT” value (pooled normal plasma [1]; [6]) was 100% and the “Percent Change of MRL” value (pooled normal plasma [1]; [6]) was 68%. The “Percent Change of MRTG” value (pooled normal plasma [1]; [6]) was 97%, the “Percent Change of TMRL” value (pooled normal plasma [1]; [6]) was 103% and the “Percent Change of TMRTG” value (pooled normal plasma [1]; [6]) was −2%. For the same compound, the “Percent Change of TTG” value (pooled normal plasma [1]; [6]) was 106%, the “solubility of CORM-2 in DMSO added to purified fibrinogen solution” value [2] was “not soluble” and the “MRTG (maximum rate of thrombus generation)” value (pooled normal plasma [3]) was 13.7 ± 1.3 dynes/cm^2/sec. For the same compound, the “TMRTG (time to maximum rate of thrombus generation)” value (pooled normal plasma [3]) was 188 ± 18 s and the “TTG (total thrombus generation)” value (pooled normal plasma [3]) was 248 ± 17 dynes/cm^2.
